In patent publication US20190134005A1 (BioMarin Pharmaceutical Inc., priority 2016, published 2019) one finds IC50 data, which are given here for 14 molecules.

SMILES strings stand for the structures. A value given as a limit tells only on which side of the number the result lay.

This test deals with T1, human CGT (Homo sapiens, UniProt Q16880).
T1 sequence (Q16880 21-541): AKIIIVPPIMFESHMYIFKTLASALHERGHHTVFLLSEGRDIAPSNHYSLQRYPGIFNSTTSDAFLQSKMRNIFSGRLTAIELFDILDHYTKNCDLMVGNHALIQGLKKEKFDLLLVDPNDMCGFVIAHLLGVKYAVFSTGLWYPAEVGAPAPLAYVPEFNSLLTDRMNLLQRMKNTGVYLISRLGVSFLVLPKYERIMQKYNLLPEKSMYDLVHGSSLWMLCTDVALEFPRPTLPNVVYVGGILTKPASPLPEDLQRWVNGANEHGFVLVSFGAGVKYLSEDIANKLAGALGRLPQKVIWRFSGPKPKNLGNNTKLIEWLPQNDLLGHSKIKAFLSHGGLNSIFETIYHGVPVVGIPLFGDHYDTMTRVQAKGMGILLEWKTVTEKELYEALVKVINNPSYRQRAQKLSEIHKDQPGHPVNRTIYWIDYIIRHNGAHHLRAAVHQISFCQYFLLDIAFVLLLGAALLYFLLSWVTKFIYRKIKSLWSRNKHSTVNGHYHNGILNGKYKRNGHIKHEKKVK
Description: Assay 1: CGT Enzymatic Assay (RapidFire/MS/MS, 0.01% Tween 80). Format: biochemical. The following applies: Table 1, Compounds of Formula (I) and Formula (II); CGT enzymatic assay; read-out: IC50.

One may read the IC50 as the concentration that gives 50% inhibition. In the case of `CCC[C@H]1N(c2ccc(Cl)cc2)C(=O)N(c2ccc(Cl)cc2)C1(O)c1cccc(C)c1` (stereo partly drawn) [Compound 90-2, (5R)-1,3-bis(4-chlorophenyl)-4-hydroxy-5-propyl-4-(m-tolyl)imidazolidin-2-one], the IC50 is under 1 µM.

On to `CCC[C@@H]1N(c2ccc(Cl)cc2)C(=O)N(c2ccc(Cl)cc2)C1(O)c1cccc(OC(F)(F)F)c1` (stereo partly drawn) [Compound 91-1, (5S)-1,3-bis(4-chlorophenyl)-4-hydroxy-5-propyl-4-(3-(trifluoromethoxy)phenyl)imidazolidin-2-one], for which the IC50 was under 1 µM.

For the molecule `CCC[C@H]1N(c2ccc(Cl)cc2)C(=O)N(c2ccc(Cl)cc2)C1(O)c1cccc(OC(F)(F)F)c1` (stereo partly drawn) [Compound 91-2, (5R)-1,3-bis(4-chlorophenyl)-4-hydroxy-5-propyl-4-(3-(trifluoromethoxy)phenyl)imidazolidin-2-one], the IC50 is under 1 µM.

Consider `COC[C@@H]1N(c2ccc(Cl)cc2)C(=O)N(c2ccc(Cl)cc2)C1(O)c1cccc(C(F)(F)F)c1` (stereo partly drawn) [Compound 92-1, (5S)-1,3-bis(4-chlorophenyl)-4-hydroxy-5-(methoxymethyl)-4-(3-(trifluoromethyl)phenyl)imidazolidin-2-one], for which the IC50 is under 1 µM.

With `COC[C@H]1N(c2ccc(Cl)cc2)C(=O)N(c2ccc(Cl)cc2)C1(O)c1cccc(C(F)(F)F)c1` (stereo partly drawn) [Compound 92-2, (5R)-1,3-bis(4-chlorophenyl)-4-hydroxy-5-(methoxymethyl)-4-(3-(trifluoromethyl)phenyl)imidazolidin-2-one], the IC50 is under 1 µM.

For `C#Cc1cccc(C2(O)C(C)N(c3ccc(Cl)cc3)C(=O)N2c2ccc(Cl)cc2)c1` (centres unmarked) [Compound 93, 1,3-bis(4-chlorophenyl)-4-(3-ethynylphenyl)-4-hydroxy-5-methylimidazolidin-2-one], the IC50 is under 1 µM.

Turning to `C#Cc1cccc(C2(O)[C@H](C)N(c3ccc(Cl)cc3)C(=O)N2c2ccc(Cl)cc2)c1` (stereo partly drawn) [Compound 93-1, (5S)-1,3-bis(4-chlorophenyl)-4-(3-ethynylphenyl)-4-hydroxy-5-methylimidazolidin-2-one], the half-maximal inhibitory concentration (IC50) is under 1 µM.

In the case of `C#Cc1cccc(C2(O)[C@@H](C)N(c3ccc(Cl)cc3)C(=O)N2c2ccc(Cl)cc2)c1` (stereo partly drawn) [Compound 93-2, (5R)-1,3-bis(4-chlorophenyl)-4-(3-ethynylphenyl)-4-hydroxy-5-methylimidazolidin-2-one], the IC50 was under 1 µM.

`CC1N(c2ccc(Cl)cc2)C(=O)N(c2ccc(Cl)cc2)C1(O)c1cccc(Br)c1` (centres unmarked) [Compound 94, 4-(3-bromophenyl)-1,3-bis(4-chlorophenyl)-4-hydroxy-5-methylimidazolidin-2-one]: the IC50 was under 1 µM.

Turning to `C[C@@H]1N(c2ccc(Cl)cc2)C(=O)N(c2ccc(Cl)cc2)C1(O)c1cccc(Br)c1` (stereo partly drawn) [Compound 94-1, (5S)-4-(3-bromophenyl)-1,3-bis(4-chlorophenyl)-4-hydroxy-5-methylimidazolidin-2-one], the IC50 was under 1 µM.

For `C[C@H]1N(c2ccc(Cl)cc2)C(=O)N(c2ccc(Cl)cc2)C1(O)c1cccc(Br)c1` (stereo partly drawn) [Compound 94-2, (5R)-4-(3-bromophenyl)-1,3-bis(4-chlorophenyl)-4-hydroxy-5-methylimidazolidin-2-one], the IC50 was under 1 µM.

Consider `N#Cc1cc(Cl)cc(C2(O)CN(c3ccc(Cl)cc3)C(=O)N2c2ccc(Cl)cc2)c1` (centres unmarked) [Compound 95, 3-(1,3-bis(4-chlorophenyl)-4-hydroxy-2-oxoimidazolidin-4-yl)-5-chlorobenzonitrile], for which the 50% inhibitory concentration (IC50) lay within 1 to 10 µM.

Turning to `CCCC1N(c2ccc(Br)cc2)C(=O)N(c2ccc(Br)cc2)C1(O)c1cccc(C)c1` (centres unmarked) [Compound 96, 1,3-bis(4-bromophenyl)-4-hydroxy-5-propyl-4-(m-tolyl)imidazolidin-2-one], the IC50 is under 1 µM.

`CCC[C@@H]1N(c2ccc(Br)cc2)C(=O)N(c2ccc(Br)cc2)C1(O)c1cccc(C)c1` (stereo partly drawn) [Compound 96-1, (5S)-1,3-bis(4-bromophenyl)-4-hydroxy-5-propyl-4-(m-tolyl)imidazolidin-2-one]: the concentration for half-maximal inhibition (IC50) was under 1 µM.
